Test results taken from patent publication US9855320B2, “Angiogenin for treatment of glaucoma” (CHUNG-ANG UNIVERSITY INDUSTRY-ACADEMIC COOPERATION …, priority 2011, dated 2018).

Key:
normal white rat = test: Intraocular pressure change due to instillation in normal white rats (day-time and night-time); assay type: in vivo
Procedure: (§1) White rats were grouped as a physiological saline solution instillation group, an angiogenin (recombinant human angiogenin, R&D systems, USA) 50 μg/ml instillation group, an angiogenin fragment (angiogenin 108-122, SEQ ID NO: 1, BACHEM, USA) instillation group, and a latanoprost 50 μg/ml instillation group, and each group consisted of 6 rats, that is, 12 eyes. Instillation test was repeatedly performed on normal rats and glaucoma model rats. Ophthalmic agent was administered at 8 AM and 8 PM in an amount of 4 μl to compare day-time effects and night-time effects, and 1, 3, 6, 9, 12, and 24 hours after the instillation, intraocular pressure was measured.

angiogenin = test: Angiogenin concentration change in human tear after Latanoprost instillation (ELISA array); assay type: in vivo
Procedure: Angiogenin concentration change in tears due to long-, short-term instillation of […] Latanoprost (Xalatan; Pfizer Inc., New York, N.Y., USA) was assayed by using ELISA kit (Custom Cytokine Human Antibody Array, RayBiotech). Short-term tear component change assay was performed as follows: 12 people, that is, 24 eyes were instilled with […] Latanoprost and then, angiogenin concentration in tear was qualitatively assayed before instillation and 6 hours after instillation. Long-term tear component change assay was performed as follows: 10 people, that is, 20 eyes, who were newly diagnosed with glaucoma were instilled with […] Latanoprost instillation for two months once a day, and then, angiogenin concentration in tear was analyzed before and after instillation. […] After washing, the result was reacted in a detection buffer solution provided by the manufacturer for 2 minutes, and then, the membrane was exposed to an X-ray film for 40 seconds, and an image thereof was obtained by using Quantity one software(Bio-Rad Lab., Hercules, Calif., USA), and chemiluminescent assay was performed thereon for qualitativeness.

[1] = test system: nitric oxide (NO) concentration in aqueous humor; test: NO concentration in aqueous humor after instillation (Griess assay); assay type: in vivo, rat; conditions: 50 μg/ml, rank among instillation groups
Procedure: Normal rat models were divided into 4 groups, each group consisting of 6 rats, that is, 12 eyes, and at 8 AM and 8 PM, each group was instilled with angiogenin 50 μg/ml, angiogenin fragment 50 μg/ml, and latanoprost 50 μg/ml, and 1, 3, and 6 hours after instillation, 15 to 20 μl of aqueous humor was extracted from two rats, that is, 4 eyes for each group. For the extraction of aqueous humor, first, rats were anesthetized, and then, corneal dissection was performed in a direction from at 9 o'clock outside each eye toward microkeratome, and then, a capillary tube was brought into contact through a dissection wound to absorb aqueous humor, which was then moved to an eppendroff tube and frozen-preserved at a temperature of −70 degrees. Thereafter, nitric oxide (NO) concentration in aqueous humor was measured by Griess assay (nitric oxide colorimetric assay kit, Biovision, USA). The aqueous humor was diluted 10 times and then mixed with the same amount of griess solution and reacted together for 10 minutes. The reaction product was moved onto a well plate and then, absorbance of nitrate, which is a NO formation reactant, was measured by using spectrophotometer at a wavelength of 540 nm and compared with a reference value to quantify the nitrate.

glaucoma white rats = test: Intraocular pressure change due to instillation in glaucoma white rats (day-time and night-time); assay type: in vivo, rat; conditions: day-time test and night-time test
Procedure: Male white rats were used to prepare an episcleral venous ablation glaucoma model. The rat was anesthetized and a limbus periphery was divided into four portions, each of which was then subjected to 2 mm dissection at an interval of 90 degrees, and then, two radial conjunctival excisions were performed on upper dissection periphery. […] Episcleral vein is distinguishable because it is located […] than extra ocular muscle, has relatively low fluidity and a relatively large diameter, contains darker blood in vessel, and is connected to peripheral venous plexus. After surgical isolation of vein, the vein was lifted up by using 3 mm-width wooden spatula to be spaced apart from the peripheral tissue, and then, was subjected to electric ablation while being careful for the peripheral tissue not to have any thermal injury or any mechanical injury due to the contact. After the operation, a chloramphenical ophthalmic agent was administered thereto. Intraocular pressure was consecutively measured three or more times by using Tonopen (Solan, Fla., USA), and only reliable intraocular pressure values within 5% or less were recorded. Only used were rats that had higher intraocular pressure than that before the operation by 5 mmHg or more when measured on the first day, the third day, one week and two weeks before and after operation.
Also, steroid-induced glaucoma model was prepared as follows: 1% prednisolone was instilled twice a day in an amount of 4 μl for 30 days, and only rats that had higher intraocular pressure by 5 mmHg or more before operation were used.
as §1

Molecule	time after instillation up to which significant intraocular pressure reduction was maintained (normal white rat; day-time instillation)	intraocular pressure reduction (normal white rat; day-time instillation, 50 μg/ml, 3 hours after the instillation) [mmHg]	expression of angiogenin in tear (angiogenin; human, short-term, 6 hours after instillation of 0.0005% Latanoprost, before instillation 42.2±9.1%) [%]	long-term angiogenin concentration in tear (angiogenin; newly diagnosed glaucoma patients, after two months of instillation once a day, 0.0005% Latanoprost, before instillation 60.5±10.8%) [%]	NO concentration increase in aqueous humor ([1]; 3 hours after instillation)	course of intraocular pressure reduction effects after the first hour (in words) (glaucoma white rats; later than one hour after instillation)	intraocular pressure reduction effects (in words) (glaucoma white rats; one hour after instillation)	average intraocular pressure reduction (normal white rat; day-time instillation, one hour after instillation) [mmHg]	time after instillation up to which significant intraocular pressure reduction was maintained (normal white rat; night-time instillation)	intraocular pressure reduction (normal white rat; night-time instillation, 1 hour after the instillation) [mmHg]	NO concentration increase in aqueous humor ([1]; 1 hour after the initial instillation, day-time and night-time test)
CC(C)OC(=O)CCC/C=C\C[C@@H]1[C@@H](CC[C@@H](O)CCc2ccccc2)[C@H](O)C[C@@H]1O [latanoprost, reference compound]	up to 12 hours	−2.8±0.4	62.5±10.2	81.2±11.5	greatest NO concentration increase	–	–	–	–	–	–
angiogenin fragment: C-terminal fragment of angiogenin, angiogenin 108-122, SEQ ID NO: 1 (BACHEM) (ENGLPVHLDQSIFRR; listed as Homo sapiens)	up to 6 hours	–	–	–	–	rapidly diminished at the highest speed from among all of the groups	excellent intraocular pressure reduction effects	−2.9±0.4	up to 12 hours	−3.4±0.6	ranked the second
